Laboratory results taken from patent publication US10556865B2, “Synergistic herbicidal composition containing certain pyridine or pyrimidine carboxylic acids and certain cereal and rice herbicides” (Dow AgroSciences, LLC, priority 2007, dated 2020).
Read-outs that look alike come from different tables or passages of the source.

Tests used:
Assay in all cases: Postemergence herbicidal activity of mixtures in cereal crops (greenhouse, visual injury)
Type in all cases: in vivo
[1] = test system: chickweed (Stellaria media L; STEME); conditions: Stellaria media, post-emergence, read-out: STEME Ob
How it was run: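 Injury ratings (0–100%) taken 20–22 days post-spray versus solvent-blank controls. Treatment: 187 L/ha track spray, 2nd–3rd leaf plants, Compound A/B with second cereal herbicide.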

[2] = test system: littleseed Canarygrass (Phalaris minor L; PHAMI)
How it was run: (§1)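 Plants at second-third true leaf stage sprayed postemergence at 187 L/ha with compound and second cereal herbicide alone and combined; solvent blank controls. Visual injury scored 0-100% versus controls after 20-22 days; expected mixture effects by Colby's equation.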

[3] = test system: annual ryegrass (Lolium multiflorum L; LOLMG)
How it was run: as §1

[4] = test system: windgrass (Apera spica-venti L; APESV); conditions: for pest or weed control at 17.5 g/ha / pest or weed control at 35 g/ha / pest or weed control at 70 g/ha / pest or weed control at 8.75 g/ha: Apera spica-venti, post-emergence, read-out: APESV Ob
How it was run: as §1

[5] = test system: wild oats (Avena fatua L; AVEFA)
How it was run: as §1

Q: With `COC(=O)c1nc(-c2ccc(Cl)c(OC)c2F)cc(N)c1Cl` [Compound A Methyl, 4-amino-3-chloro-6-(4-chloro-2-fluoro-3-methoxyphenyl)pyridine-2-carboxylic acid methyl ester] as the compound, how does the pest or weed control at 17.5 g/ha ([1]; 17.5 g/ha) read?
A: 78%

Q: What about the pest or weed control at 35 g/ha ([1]; 35 g/ha) of the same compound?
A: 90%

Q: And the pest or weed control at 70 g/ha ([1]; 70 g/ha)?
A: 100%

Q: And the “PHAMI Ob” value ([2]; 17.5 g/ha, Table 4)?
A: 20%

Q: And the “PHAMI Ob” value ([2]; 17.5 g/ha, Table 5)?
A: 20%

Q: What about the “PHAMI Ob” value ([2]; 17.5 g/ha, Table 6) of the same compound?
A: 20%

Q: And the “PHAMI Ob” value ([2]; 35 g/ha, Table 3)?
A: 30%

Q: And the “PHAMI Ob” value ([2]; 35 g/ha, Table 4)?
A: 30%

Q: What about the “PHAMI Ob” value ([2]; 35 g/ha, Table 5) of the same compound?
A: 30%

Q: And the “PHAMI Ob” value ([2]; 35 g/ha, Table 6)?
A: 30%

Q: And the “PHAMI Ob” value ([2]; 35 g/ha, Table 11)?
A: 3%

Q: And the “PHAMI Ob” value ([2]; 70 g/ha, Table 3)?
A: 35%

Q: What about the “PHAMI Ob” value ([2]; 70 g/ha, Table 4) of the same compound?
A: 35%

Q: What about the “PHAMI Ob” value ([2]; 70 g/ha, Table 5) of the same compound?
A: 35%

Q: What about the “PHAMI Ob” value ([2]; 70 g/ha, Table 6) of the same compound?
A: 35%

Q: What about the “PHAMI Ob” value ([2]; 70 g/ha, Table 11) of the same compound?
A: 6%

Q: And the “PHAMI Ob” value ([2]; 140 g/ha, Table 11)?
A: 17%

Q: And the “LOLMG Ob” value ([3]; 17.5 g/ha, Table 1)?
A: 20%

Q: And the “LOLMG Ob” value ([3]; 17.5 g/ha, Table 2)?
A: 20%

Q: And the “LOLMG Ob” value ([3]; 35 g/ha, Table 1)?
A: 40%

Q: What about the “LOLMG Ob” value ([3]; 35 g/ha, Table 2) of the same compound?
A: 40%

Q: What about the “LOLMG Ob” value ([3]; 70 g/ha, Table 1) of the same compound?
A: 0%

Q: What about the “LOLMG Ob” value ([3]; 70 g/ha, Table 2) of the same compound?
A: 60%

Q: And the pest or weed control at 17.5 g/ha ([4]; 17.5 g/ha, Table 1)?
A: 20%

Q: And the pest or weed control at 17.5 g/ha ([4]; 17.5 g/ha, Table 4)?
A: 0%

Q: And the pest or weed control at 17.5 g/ha ([4]; 17.5 g/ha, Table 5)?
A: 0%

Q: What about the pest or weed control at 35 g/ha ([4]; 35 g/ha, Table 1) of the same compound?
A: 20%

Q: What about the pest or weed control at 35 g/ha ([4]; 35 g/ha, Table 3) of the same compound?
A: 10%

Q: And the pest or weed control at 35 g/ha ([4]; 35 g/ha, Table 4)?
A: 10%

Q: And the pest or weed control at 35 g/ha ([4]; 35 g/ha, Table 5)?
A: 10%

Q: What about the pest or weed control at 70 g/ha ([4]; 70 g/ha, Table 1) of the same compound?
A: 30%

Q: And the pest or weed control at 70 g/ha ([4]; 70 g/ha, Table 3)?
A: 10%

Q: What about the pest or weed control at 70 g/ha ([4]; 70 g/ha, Table 4) of the same compound?
A: 10%

Q: What about the pest or weed control at 70 g/ha ([4]; 70 g/ha, Table 5) of the same compound?
A: 10%

Q: What about the “AVEFA Ob” value ([5]; 17.5 g/ha, Table 1) of the same compound?
A: 30%

Q: And the “AVEFA Ob” value ([5]; 17.5 g/ha, Table 4)?
A: 0%

Q: And the “AVEFA Ob” value ([5]; 17.5 g/ha, Table 5)?
A: 0%

Q: What about the “AVEFA Ob” value ([5]; 35 g/ha, Table 1) of the same compound?
A: 30%

Q: What about the “AVEFA Ob” value ([5]; 35 g/ha, Table 3) of the same compound?
A: 40%

Q: What about the “AVEFA Ob” value ([5]; 35 g/ha, Table 4) of the same compound?
A: 40%

Q: And the “AVEFA Ob” value ([5]; 35 g/ha, Table 5)?
A: 40%

Q: What about the “AVEFA Ob” value ([5]; 70 g/ha, Table 1) of the same compound?
A: 35%

Q: What about the “AVEFA Ob” value ([5]; 70 g/ha, Table 3) of the same compound?
A: 45%

Q: And the “AVEFA Ob” value ([5]; 70 g/ha, Table 4)?
A: 45%

Q: And the “AVEFA Ob” value ([5]; 70 g/ha, Table 5)?
A: 45%

Q: For `O=C(O)c1c(Cl)ccc2cc(Cl)cnc12` [Quinclorac], which pest or weed control at 140 g/ha ([1]; 140 g/ha alone) is on record?
A: 0%

Q: What does the source list for `COC(=O)c1nc(-c2ccc(Cl)c(OC)c2F)nc(N)c1Cl` [Compound B Methyl, 6-amino-5-chloro-2-(4-chloro-2-fluoro-3-methoxyphenyl)pyrimidine-4-carboxylic acid methyl ester]?
A: PHAMI Ob ([2]; 8.75 g/ha): 0%; PHAMI Ob ([2]; 8.75 g/ha, Table 20): 0%; PHAMI Ob ([2]; 8.75 g/ha, Table 22): 0%; PHAMI Ob ([2]; 17.5 g/ha): 0%; PHAMI Ob ([2]; 17.5 g/ha, Table 20): 0%; PHAMI Ob ([2]; 17.5 g/ha, Table 22): 0%; PHAMI Ob ([2]; 35 g/ha): 0%; PHAMI Ob ([2]; 35 g/ha, Table 20): 0%; PHAMI Ob ([2]; 35 g/ha, Table 22): 0%; PHAMI Ob ([2]; 70 g/ha): 0%; PHAMI Ob ([2]; 70 g/ha, Table 20): 0%; PHAMI Ob ([2]; 70 g/ha, Table 22): 0%; LOLMG Ob ([3]; 8.75 g/ha): 0%; LOLMG Ob ([3]; 8.75 g/ha, Table 22): 0%; LOLMG Ob ([3]; 17.5 g/ha): 0%; LOLMG Ob ([3]; 17.5 g/ha, Table 22): 0%; LOLMG Ob ([3]; 35 g/ha): 0%; LOLMG Ob ([3]; 35 g/ha, Table 22): 0%; LOLMG Ob ([3]; 70 g/ha): 0%; LOLMG Ob ([3]; 70 g/ha, Table 22): 0%; APESV Ob ([4]; 8.75 g/ha): 0%; APESV Ob ([4]; 17.5 g/ha): 0%; APESV Ob ([4]; 35 g/ha): 0%; APESV Ob ([4]; 70 g/ha): 0%; pest or weed control at 8.75 g/ha ([4]; 8.75 g/ha, Table 20): 0%; pest or weed control at 8.75 g/ha ([4]; 8.75 g/ha, Table 22): 0%; pest or weed control at 17.5 g/ha ([4]; 17.5 g/ha, Table 20): 0%; pest or weed control at 17.5 g/ha ([4]; 17.5 g/ha, Table 22): 0%; pest or weed control at 35 g/ha ([4]; 35 g/ha, Table 20): 0%; pest or weed control at 35 g/ha ([4]; 35 g/ha, Table 22): 0%; pest or weed control at 70 g/ha ([4]; 70 g/ha, Table 20): 0%; pest or weed control at 70 g/ha ([4]; 70 g/ha, Table 22): 0%; AVEFA Ob ([5]; 8.75 g/ha): 0%; AVEFA Ob ([5]; 8.75 g/ha, Table 20): 0%; AVEFA Ob ([5]; 17.5 g/ha): 0%; AVEFA Ob ([5]; 17.5 g/ha, Table 20): 0%; AVEFA Ob ([5]; 35 g/ha): 0%; AVEFA Ob ([5]; 35 g/ha, Table 20): 0%; AVEFA Ob ([5]; 70 g/ha): 0%; AVEFA Ob ([5]; 70 g/ha, Table 20): 0%
